Test results published in US20260184713A1, “KINASE INHIBITORS” (The United States of America, as represented by the …, priority 2022, published 2026).
Where two headings read alike, the source gives them in different places.

Experiments:
Experiment in all cases: HOTSPOT radiometric kinase assay
[1] = molecular target: MAP2K1 (MEK1) (Homo sapiens, UniProt Q02750)
[2] = molecular target: T1, DYRK3 (Homo sapiens, UniProt O43781); format: biochemical
T1 construct: purchased Reaction Biology Corp
T1 sequence (O43781 1-588): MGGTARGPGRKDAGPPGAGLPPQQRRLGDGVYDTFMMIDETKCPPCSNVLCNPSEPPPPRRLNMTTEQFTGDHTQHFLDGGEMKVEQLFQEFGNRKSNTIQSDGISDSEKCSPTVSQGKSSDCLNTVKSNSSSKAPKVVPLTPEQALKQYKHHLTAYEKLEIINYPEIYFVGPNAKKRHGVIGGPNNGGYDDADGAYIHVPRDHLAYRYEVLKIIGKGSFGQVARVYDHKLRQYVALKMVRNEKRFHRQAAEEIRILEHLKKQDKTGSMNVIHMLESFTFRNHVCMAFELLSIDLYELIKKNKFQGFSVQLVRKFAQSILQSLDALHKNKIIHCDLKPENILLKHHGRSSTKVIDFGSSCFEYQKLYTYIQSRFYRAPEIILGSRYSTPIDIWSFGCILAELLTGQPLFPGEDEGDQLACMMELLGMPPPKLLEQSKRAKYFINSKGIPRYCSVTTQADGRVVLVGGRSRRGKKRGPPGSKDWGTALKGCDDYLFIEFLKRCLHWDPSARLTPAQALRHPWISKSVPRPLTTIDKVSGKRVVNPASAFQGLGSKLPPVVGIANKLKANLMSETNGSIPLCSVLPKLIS

[3] = molecular target: T2, DYRK2 (Homo sapiens, UniProt Q92630); format: biochemical
T2 construct: purchased Reaction Biology Corp
T2 sequence (Q92630 1-601): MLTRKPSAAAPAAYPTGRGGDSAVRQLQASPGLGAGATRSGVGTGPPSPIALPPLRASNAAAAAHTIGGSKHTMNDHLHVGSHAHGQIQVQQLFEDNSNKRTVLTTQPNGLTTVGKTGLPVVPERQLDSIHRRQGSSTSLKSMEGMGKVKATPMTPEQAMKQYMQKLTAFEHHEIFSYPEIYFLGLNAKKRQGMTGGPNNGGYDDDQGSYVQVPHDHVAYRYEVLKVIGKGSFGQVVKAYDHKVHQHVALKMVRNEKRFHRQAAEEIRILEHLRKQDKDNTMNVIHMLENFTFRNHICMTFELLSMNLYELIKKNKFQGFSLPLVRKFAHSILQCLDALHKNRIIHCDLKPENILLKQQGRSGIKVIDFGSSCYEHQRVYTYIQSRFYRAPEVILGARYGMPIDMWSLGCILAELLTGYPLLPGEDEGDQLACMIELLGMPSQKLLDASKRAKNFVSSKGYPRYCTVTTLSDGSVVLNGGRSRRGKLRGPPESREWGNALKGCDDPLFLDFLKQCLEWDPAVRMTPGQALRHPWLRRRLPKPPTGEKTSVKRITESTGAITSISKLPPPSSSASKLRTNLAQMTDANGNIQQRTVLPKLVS

[4] = molecular target: T3, BMX (Homo sapiens, UniProt P51813); format: biochemical; conditions: 10 μM ATP
T3 construct: purchased Reaction Biology Corp
T3 sequence (P51813 whole entry): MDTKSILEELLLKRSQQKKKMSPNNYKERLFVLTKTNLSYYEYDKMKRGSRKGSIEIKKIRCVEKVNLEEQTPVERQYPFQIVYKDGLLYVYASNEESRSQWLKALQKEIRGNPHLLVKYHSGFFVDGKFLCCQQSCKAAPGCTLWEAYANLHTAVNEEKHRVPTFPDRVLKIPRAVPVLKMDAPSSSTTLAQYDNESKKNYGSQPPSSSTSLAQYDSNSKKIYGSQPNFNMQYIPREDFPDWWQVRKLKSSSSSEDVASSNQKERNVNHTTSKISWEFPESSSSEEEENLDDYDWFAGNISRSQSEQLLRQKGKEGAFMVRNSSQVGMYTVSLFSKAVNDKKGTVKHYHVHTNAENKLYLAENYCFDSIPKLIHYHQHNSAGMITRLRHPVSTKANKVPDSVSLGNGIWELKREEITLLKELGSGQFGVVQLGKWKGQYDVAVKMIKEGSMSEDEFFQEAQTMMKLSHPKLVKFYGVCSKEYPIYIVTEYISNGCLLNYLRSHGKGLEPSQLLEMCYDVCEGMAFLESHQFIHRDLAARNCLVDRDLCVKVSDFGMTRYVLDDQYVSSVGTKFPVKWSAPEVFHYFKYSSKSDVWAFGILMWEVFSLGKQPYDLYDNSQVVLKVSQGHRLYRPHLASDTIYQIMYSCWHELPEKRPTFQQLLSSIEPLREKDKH

[5] = molecular target: ERK1 (Homo sapiens, UniProt P27361)
Sequence of ERK1 (P27361 whole entry): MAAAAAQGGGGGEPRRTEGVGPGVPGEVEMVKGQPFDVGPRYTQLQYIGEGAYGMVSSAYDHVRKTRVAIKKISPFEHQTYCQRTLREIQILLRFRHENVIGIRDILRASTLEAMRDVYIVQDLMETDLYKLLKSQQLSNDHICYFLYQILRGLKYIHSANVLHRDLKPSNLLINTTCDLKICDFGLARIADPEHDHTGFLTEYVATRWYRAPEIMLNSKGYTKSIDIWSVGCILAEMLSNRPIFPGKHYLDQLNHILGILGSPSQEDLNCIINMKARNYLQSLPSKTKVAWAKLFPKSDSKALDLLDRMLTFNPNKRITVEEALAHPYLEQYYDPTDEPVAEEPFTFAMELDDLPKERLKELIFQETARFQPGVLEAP

[6] = molecular target: T4, PKCθ (Homo sapiens, UniProt Q04759); format: biochemical; conditions: 2 μM, 10 μM ATP
T4 construct: purchased Reaction Biology Corp
T4 sequence (Q04759 whole entry): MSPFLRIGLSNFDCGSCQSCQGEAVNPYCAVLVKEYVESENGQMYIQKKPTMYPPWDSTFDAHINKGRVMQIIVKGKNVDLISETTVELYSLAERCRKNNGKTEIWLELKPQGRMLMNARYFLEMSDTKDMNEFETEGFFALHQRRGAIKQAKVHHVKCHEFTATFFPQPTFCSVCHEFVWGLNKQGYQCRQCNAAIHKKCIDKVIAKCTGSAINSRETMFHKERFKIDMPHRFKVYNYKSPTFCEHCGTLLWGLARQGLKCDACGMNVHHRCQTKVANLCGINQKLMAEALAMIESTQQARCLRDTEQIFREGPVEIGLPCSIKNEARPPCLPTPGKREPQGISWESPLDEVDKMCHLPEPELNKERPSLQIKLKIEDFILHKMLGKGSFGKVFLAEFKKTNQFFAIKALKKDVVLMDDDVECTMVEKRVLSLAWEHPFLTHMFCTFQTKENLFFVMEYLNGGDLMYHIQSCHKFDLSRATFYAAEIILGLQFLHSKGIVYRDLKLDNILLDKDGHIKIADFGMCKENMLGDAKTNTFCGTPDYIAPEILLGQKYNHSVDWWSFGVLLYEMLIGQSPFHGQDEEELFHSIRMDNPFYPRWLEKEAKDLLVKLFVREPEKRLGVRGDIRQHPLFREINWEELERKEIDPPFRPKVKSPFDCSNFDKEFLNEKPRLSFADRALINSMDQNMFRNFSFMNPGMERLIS

[7] = molecular target: T5, LATS2 (Homo sapiens, UniProt Q9NRM7); format: biochemical; conditions: 10 μM ATP
T5 construct: purchased Reaction Biology Corp
T5 sequence (Q9NRM7 whole entry): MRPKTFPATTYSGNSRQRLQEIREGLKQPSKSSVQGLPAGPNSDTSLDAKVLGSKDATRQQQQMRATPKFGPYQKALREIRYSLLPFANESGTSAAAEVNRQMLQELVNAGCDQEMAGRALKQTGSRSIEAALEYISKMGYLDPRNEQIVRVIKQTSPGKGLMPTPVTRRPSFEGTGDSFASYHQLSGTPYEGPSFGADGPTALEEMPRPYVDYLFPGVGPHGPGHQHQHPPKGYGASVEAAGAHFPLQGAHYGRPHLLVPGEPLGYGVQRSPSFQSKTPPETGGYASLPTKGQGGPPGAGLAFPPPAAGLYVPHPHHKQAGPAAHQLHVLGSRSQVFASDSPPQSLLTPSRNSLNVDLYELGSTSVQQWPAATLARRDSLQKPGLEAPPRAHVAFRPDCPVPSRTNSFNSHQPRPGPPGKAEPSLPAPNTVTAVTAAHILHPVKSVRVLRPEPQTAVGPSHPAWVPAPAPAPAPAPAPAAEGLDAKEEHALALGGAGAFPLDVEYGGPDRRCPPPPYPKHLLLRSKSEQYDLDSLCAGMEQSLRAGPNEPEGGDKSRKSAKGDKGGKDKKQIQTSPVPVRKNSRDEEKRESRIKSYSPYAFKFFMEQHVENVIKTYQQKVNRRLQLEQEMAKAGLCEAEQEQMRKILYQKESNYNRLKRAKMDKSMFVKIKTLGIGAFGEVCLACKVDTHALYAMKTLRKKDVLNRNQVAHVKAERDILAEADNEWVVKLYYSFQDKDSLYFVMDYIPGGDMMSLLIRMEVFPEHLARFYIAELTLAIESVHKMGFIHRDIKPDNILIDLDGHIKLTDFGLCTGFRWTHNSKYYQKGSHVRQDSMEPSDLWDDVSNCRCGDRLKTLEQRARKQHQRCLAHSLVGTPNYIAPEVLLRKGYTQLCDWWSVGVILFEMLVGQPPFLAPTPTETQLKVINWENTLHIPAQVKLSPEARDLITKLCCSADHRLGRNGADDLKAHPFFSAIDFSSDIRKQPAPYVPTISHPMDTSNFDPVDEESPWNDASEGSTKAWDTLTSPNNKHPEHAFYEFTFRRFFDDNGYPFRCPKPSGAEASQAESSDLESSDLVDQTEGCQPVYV

[8] = molecular target: T6, LATS1 (Homo sapiens, UniProt O95835); format: biochemical; conditions: 10 μM ATP
T6 construct: purchased Reaction Biology Corp
T6 sequence (O95835 1-1130): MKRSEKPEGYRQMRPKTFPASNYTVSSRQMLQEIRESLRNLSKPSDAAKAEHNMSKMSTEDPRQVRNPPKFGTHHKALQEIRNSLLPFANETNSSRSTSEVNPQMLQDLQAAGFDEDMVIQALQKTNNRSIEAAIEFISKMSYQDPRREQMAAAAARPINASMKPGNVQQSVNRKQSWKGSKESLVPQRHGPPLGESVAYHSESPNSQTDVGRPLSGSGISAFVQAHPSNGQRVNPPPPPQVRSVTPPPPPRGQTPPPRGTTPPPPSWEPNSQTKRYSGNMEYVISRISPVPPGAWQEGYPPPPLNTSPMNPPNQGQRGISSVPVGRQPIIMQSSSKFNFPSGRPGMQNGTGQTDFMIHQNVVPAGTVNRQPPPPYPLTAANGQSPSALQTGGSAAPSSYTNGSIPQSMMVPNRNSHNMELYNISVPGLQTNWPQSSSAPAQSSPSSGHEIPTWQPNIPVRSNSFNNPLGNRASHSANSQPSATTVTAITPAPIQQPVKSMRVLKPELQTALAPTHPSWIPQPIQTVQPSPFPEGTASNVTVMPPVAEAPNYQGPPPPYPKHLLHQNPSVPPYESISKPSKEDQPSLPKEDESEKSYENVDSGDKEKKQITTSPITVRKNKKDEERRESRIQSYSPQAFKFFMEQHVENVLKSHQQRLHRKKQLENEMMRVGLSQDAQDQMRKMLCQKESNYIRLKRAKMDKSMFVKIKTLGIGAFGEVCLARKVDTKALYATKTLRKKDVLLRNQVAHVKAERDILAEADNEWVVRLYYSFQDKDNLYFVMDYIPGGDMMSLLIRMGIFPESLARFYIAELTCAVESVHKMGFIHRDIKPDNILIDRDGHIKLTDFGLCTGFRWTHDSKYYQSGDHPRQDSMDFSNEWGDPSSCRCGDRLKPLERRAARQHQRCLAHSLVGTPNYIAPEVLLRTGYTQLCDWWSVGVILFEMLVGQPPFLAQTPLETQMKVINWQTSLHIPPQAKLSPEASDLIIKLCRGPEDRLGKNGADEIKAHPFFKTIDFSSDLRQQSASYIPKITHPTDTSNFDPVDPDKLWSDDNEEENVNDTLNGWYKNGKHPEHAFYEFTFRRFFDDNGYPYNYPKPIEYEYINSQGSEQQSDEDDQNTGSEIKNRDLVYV

Sequence of MAP2K1 (MEK1) (Q02750 whole entry): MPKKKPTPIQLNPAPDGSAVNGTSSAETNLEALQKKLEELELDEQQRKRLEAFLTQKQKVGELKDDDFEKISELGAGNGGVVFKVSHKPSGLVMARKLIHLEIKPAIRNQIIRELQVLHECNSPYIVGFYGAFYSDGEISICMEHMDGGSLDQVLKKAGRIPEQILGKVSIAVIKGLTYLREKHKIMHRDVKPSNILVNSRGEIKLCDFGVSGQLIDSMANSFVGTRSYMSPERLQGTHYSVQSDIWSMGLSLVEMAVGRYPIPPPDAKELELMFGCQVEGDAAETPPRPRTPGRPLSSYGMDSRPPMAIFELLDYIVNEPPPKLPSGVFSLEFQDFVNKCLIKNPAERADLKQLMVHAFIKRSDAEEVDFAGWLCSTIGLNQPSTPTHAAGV

Cn1cncc1C1=CN(c2ncnc3nc[nH]c23)CCS1 [Compound 1, Aplithianine A]
IC50 [1]: 18000 to 65000 nM
IC50 ([1]; read-out: MAP2K1 / MEK1 IC50, 10 μM ATP): 23600 nM
inhibition at 0.05 µM ([2]; 50 nM, 10 μM ATP): 15.9%
inhibition at 2 µM ([2]; 2 μM, 10 μM ATP): 90.9%
IC50 ([2]; 10 μM ATP, read-out: DYRK3 IC50): 202 nM
DYRK3 Differential (as compared to PKG1a) ([2]; IC50 (kinase)/IC50 (PKG1a)): 19.13
IC50 ([2]; Table 4 dose-response, read-out: DYRK3 IC50 Values): 218 nM
inhibition at 0.05 µM ([3]; 50 nM, 10 μM ATP): 20.6%
inhibition at 2 µM ([3]; 2 μM, 10 μM ATP): 91.2%
IC50 ([3]; 10 μM ATP, read-out: DYRK2 IC50): 142 nM
DYRK2 Differential (as compared to PKG1a) ([3]; IC50 (kinase)/IC50 (PKG1a)): 13.27
IC50 ([3]; Table 4 dose-response, read-out: DYRK2 IC50 Values): 151 nM
inhibition at 0.05 µM ([4]; 50 nM): 13.9%
inhibition at 2 µM ([4]; 2 μM): 40%
IC50 [5]: 800 to 6600 nM
IC50 ([5]; read-out: ERK1 IC50, 10 μM ATP): 5720 nM
inhibition at 2 µM [6]: 97.9%
inhibition at 0.05 µM ([7]; 50 nM): 34.2%
inhibition at 2 µM ([7]; 2 μM): 92.9%
inhibition at 0.05 µM ([8]; 50 nM): 35%
inhibition at 2 µM ([8]; 2 μM): 96.1%
